In ChEMBL document CHEMBL1821713, “Synthesis and in vitro activity of novel 1,2,4-triazolo[4,3-a]pyrimidine oxazolidinone antibacterial agents. Part II” (Bioorg Med Chem Lett, 2011):
In brackets after ≈: the same amount, converted by molar mass.

What was measured:
Staphylococcus aureus [1] = experiment: Antibacterial activity against Staphylococcus aureus ATCC 25923 by CLSI method; assay type: functional
Staphylococcus aureus [2] = experiment: Antibacterial activity against methicillin-resistant Staphylococcus aureus 43300 by CLSI method; assay type: functional
Enterococcus faecalis = experiment: Antibacterial activity against Enterococcus faecalis ATCC 29212 by CLSI method; assay type: functional
[3] = test system: Staphylococcus epidermidis; experiment: Antibacterial activity against Staphylococcus epidermidis ATCC 12228 by CLSI method; assay type: functional
[4] = test system: Staphylococcus epidermidis; experiment: Antibacterial activity against Staphylococcus epidermidis ATCC 12228 by CLSI method relative to Linezolid; assay type: functional
Staphylococcus aureus [5] = experiment: Antibacterial activity against Staphylococcus aureus ATCC 700699 Mu 50 by CLSI method relative to Linezolid; assay type: functional
[6] = test system: Staphylococcus epidermidis; experiment: Antibacterial activity against Staphylococcus epidermidis ATCC 14990 by CLSI method relative to Linezolid; assay type: functional
Staphylococcus aureus [7] = experiment: Antibacterial activity against Staphylococcus aureus FDA 209P by CLSI method relative to Linezolid; assay type: functional
Staphylococcus aureus [8] = experiment: Antibacterial activity against Staphylococcus aureus ATCC 49775 PVL positive by CLSI method relative to Linezolid; assay type: functional
CYP3A4 = CYP3A4 (Homo sapiens, UniProt P08684); experiment: Inhibition of human recombinant CYP3A4 at 10 uM by fluorimetric analysis; assay type: ADME
Sequence of CYP3A4 (P08684 whole entry): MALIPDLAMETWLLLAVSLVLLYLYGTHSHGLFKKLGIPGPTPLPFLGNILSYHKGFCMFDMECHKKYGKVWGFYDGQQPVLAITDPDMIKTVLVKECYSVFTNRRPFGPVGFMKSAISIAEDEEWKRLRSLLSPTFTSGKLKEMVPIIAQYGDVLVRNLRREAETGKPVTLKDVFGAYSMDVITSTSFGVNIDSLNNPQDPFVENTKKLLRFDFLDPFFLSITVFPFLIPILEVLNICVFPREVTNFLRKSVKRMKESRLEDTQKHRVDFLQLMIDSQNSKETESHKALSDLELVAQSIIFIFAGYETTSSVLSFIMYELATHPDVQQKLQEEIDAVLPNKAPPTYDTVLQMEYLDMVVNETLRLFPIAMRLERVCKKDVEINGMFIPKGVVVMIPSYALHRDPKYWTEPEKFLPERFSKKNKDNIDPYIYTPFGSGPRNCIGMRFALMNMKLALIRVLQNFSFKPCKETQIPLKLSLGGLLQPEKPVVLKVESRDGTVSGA

CYP2C9 = CYP2C9 (Homo sapiens, UniProt P11712); experiment: Inhibition of recombinant human cytochrome P450-2C9 at 10 uM by fluorimetric analysis; assay type: ADME
Sequence of CYP2C9 (P11712 whole entry): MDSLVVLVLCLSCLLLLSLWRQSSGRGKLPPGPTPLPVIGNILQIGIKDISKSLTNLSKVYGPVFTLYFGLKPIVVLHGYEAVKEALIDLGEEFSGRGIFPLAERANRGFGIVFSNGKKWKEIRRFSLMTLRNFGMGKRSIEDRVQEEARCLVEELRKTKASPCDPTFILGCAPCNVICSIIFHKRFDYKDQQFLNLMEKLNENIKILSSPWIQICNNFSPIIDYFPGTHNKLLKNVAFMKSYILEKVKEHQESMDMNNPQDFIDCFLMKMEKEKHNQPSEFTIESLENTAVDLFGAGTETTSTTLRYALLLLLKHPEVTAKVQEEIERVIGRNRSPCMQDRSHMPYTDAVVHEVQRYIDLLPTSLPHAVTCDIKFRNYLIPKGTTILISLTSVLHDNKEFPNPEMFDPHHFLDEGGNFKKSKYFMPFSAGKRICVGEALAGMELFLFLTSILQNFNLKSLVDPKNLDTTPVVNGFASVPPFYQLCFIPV

Enterococcus faecium = experiment: Antibacterial activity against Enterococcus faecium 06076VRE by CLSI method relative to Linezolid; assay type: functional
Staphylococcus aureus [9] = experiment: Antibacterial activity against Staphylococcus aureus ATCC 29213 by CLSI method relative to Linezolid; assay type: functional
CYP2C19 = CYP2C19 (Homo sapiens, UniProt P33261); experiment: Inhibition of human recombinant CYP2C19 at 10 uM by fluorimetric analysis; assay type: ADME
Sequence of CYP2C19 (P33261 whole entry): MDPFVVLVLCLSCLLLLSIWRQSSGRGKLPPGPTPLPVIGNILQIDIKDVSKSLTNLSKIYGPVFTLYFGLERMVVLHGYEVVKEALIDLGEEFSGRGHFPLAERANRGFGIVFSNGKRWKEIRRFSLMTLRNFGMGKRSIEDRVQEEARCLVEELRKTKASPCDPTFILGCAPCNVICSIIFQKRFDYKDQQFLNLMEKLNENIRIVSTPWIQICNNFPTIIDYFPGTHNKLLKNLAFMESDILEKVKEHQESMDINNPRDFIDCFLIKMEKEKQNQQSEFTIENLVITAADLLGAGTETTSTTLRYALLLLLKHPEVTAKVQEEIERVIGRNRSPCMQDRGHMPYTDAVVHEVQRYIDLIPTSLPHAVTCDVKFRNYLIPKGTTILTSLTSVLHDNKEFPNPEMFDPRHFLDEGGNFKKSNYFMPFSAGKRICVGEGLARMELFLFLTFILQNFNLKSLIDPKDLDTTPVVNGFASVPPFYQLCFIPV

CYP2D6 = CYP2D6 (Homo sapiens, UniProt P10635); experiment: Inhibition of human recombinant CYP2D6 at 10 uM by fluorimetric analysis; assay type: ADME
Sequence of CYP2D6 (P10635 whole entry): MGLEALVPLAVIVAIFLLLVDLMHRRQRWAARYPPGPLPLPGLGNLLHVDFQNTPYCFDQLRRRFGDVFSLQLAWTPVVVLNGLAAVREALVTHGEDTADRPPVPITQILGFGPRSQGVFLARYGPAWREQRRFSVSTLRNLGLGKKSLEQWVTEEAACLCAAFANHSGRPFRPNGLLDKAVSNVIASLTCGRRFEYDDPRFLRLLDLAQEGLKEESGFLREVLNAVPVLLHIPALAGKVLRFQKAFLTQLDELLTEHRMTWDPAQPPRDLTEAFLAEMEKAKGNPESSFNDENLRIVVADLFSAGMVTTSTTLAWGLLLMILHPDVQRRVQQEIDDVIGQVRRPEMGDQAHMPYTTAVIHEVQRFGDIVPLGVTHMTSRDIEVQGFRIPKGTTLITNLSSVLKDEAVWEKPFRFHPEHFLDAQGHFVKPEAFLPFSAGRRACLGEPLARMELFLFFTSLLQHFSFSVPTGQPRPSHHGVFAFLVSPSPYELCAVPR

Streptococcus pyogenes = experiment: Antibacterial activity against Streptococcus pyogenes ATCC 19615 by CLSI method relative to Linezolid; assay type: functional
Streptococcus pneumoniae = experiment: Antibacterial activity against Streptococcus pneumoniae ATCC 49619 by CLSI method relative to Linezolid; assay type: functional
CYP1A2 = molecular target: T1, CYP1A2 (Homo sapiens, UniProt P05177); experiment: Inhibition of human recombinant CYP1A2 at 10 uM by fluorimetric analysis; assay type: ADME
T1 sequence (P05177 whole entry): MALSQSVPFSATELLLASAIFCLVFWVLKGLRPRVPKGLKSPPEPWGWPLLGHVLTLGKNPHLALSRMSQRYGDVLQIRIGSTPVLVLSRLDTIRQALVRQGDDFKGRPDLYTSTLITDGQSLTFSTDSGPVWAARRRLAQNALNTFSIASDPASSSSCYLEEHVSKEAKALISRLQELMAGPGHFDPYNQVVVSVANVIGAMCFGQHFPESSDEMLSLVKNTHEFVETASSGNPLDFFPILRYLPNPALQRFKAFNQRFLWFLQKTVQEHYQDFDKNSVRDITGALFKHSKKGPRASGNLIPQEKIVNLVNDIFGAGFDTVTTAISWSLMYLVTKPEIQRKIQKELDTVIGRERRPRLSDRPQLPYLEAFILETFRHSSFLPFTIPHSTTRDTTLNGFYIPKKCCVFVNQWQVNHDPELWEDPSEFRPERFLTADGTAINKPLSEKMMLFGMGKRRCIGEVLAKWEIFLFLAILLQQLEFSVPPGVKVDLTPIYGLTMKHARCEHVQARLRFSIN

Staphylococcus aureus [10] = experiment: Antibacterial activity against Staphylococcus aureus ATCC 13709 Smith by CLSI method relative to Linezolid; assay type: functional

SMILES	MIC (Staphylococcus aureus [1]) [µg/mL]	MIC (Staphylococcus aureus [2]) [µg/mL]	MIC (Enterococcus faecalis) [µg/mL]	MIC [3] [µg/mL]	also measured
CC(=O)NC[C@H]1CN(c2ccc(-c3ccc(-c4nnc5ncccn45)c(F)c3)c(F)c2)C(=O)O1	0.5 (≈ 1.08 µM)	0.125 (≈ 0.269 µM)	0.5 (≈ 1.08 µM)	0.5 (≈ 1.08 µM)	–
CC(=O)NC[C@H]1CN(c2ccc(-c3ccc(-c4nnc5ncccn45)nc3)c(F)c2)C(=O)O1	0.25 (≈ 0.559 µM)	0.125 (≈ 0.279 µM)	0.5 (≈ 1.12 µM)	0.5 (≈ 1.12 µM)	–
CC(=O)NC[C@H]1CN(c2ccc(-c3cccc(-c4nnc5ncccn45)c3)c(F)c2)C(=O)O1	4 (≈ 8.96 µM)	1 (≈ 2.24 µM)	4 (≈ 8.96 µM)	4 (≈ 8.96 µM)	–
COc1ccc(-c2ccc(N3C[C@H](CNC(C)=O)OC3=O)cc2F)cc1-c1nnc2ncccn12	16 (≈ 33.6 µM)	8 (≈ 16.8 µM)	16 (≈ 33.6 µM)	> 16	–
CC(=O)NC[C@H]1CN(c2ccc(-c3csc(-c4nnc5ncccn45)c3)c(F)c2)C(=O)O1	0.125 (≈ 0.276 µM)	0.125 (≈ 0.276 µM)	0.06 (≈ 0.133 µM)	0.25 (≈ 0.553 µM)	fold change (FC) [4]: 4; fold change (FC) (Staphylococcus aureus [5]): 4; fold change (FC) [6]: 4; fold change (FC) (Staphylococcus aureus [7]): 4; fold change (FC) (Staphylococcus aureus [8]): 4; inhibition at 10 µM (CYP3A4): 37.7%; inhibition at 10 µM (CYP2C9): 40.9%; fold change (FC) (Enterococcus faecium): 4; fold change (FC) (Staphylococcus aureus [9]): 4; inhibition at 10 µM (CYP2C19): 36.2%; inhibition at 10 µM (CYP2D6): 5.6%; fold change (FC) (Streptococcus pyogenes): 4; fold change (FC) (Streptococcus pneumoniae): 4; inhibition at 10 µM (CYP1A2): 4.3%; fold change (FC) (Staphylococcus aureus [10]): 4
CC(=O)NC[C@H]1CN(c2cccc(F)c2)C(=O)O1	> 16	16 (≈ 63.4 µM)	> 16	16 (≈ 63.4 µM)	–
CC(=O)NC[C@H]1CN(c2ccc(N3CCOCC3)c(F)c2)C(=O)O1 [LINEZOLID]	–	–	–	1 (≈ 2.96 µM)	–
